Measurements taken from patent US20130096028A1, “CELL CAPABLE OF EXPRESSING TSLP CONSTANTLY AND AT HIGH LEVEL, AND METHOD FOR SCREENING FOR TSLP MODULATOR UTILIZING THE CELL” (TOHOKU UNIVERSITY, priority 2010, published 2013).

Tests used:
[1] = tested on: human TSLP mRNA; settings: human airway epithelial cell lines; cited from earlier work
[2] = tested on: TSLP production of KCMH-1 cell; test: TSLP production of KCMH-1 cells, TSLP in culture supernatant quantified by ELISA; type: cell-based, mouse; settings: BAY11-7082 10 μM, 24 hours, ELISA (FIG. 5)
Experimental: The KCMH-1 cells were suspended at a concentration of 1×10^5 cells/ml in an MEMU medium containing 10% FBS. 0.5 ml of the cell suspension was inoculated to each well of a 24-well cluster dish. 24 hours later, the medium was removed, and the cells were washed with phosphate-buffered saline (PBS). Then, 0.5 ml of an MEMU medium containing 10% FBS and each concentration of dexamethasone (0.1 or 1 μM) or FK506 ([…]) was added to the cells. 24 hours later, the culture solution was collected, and TSLP in the supernatant was quantified by ELISA (FIG. 2).
The KCMH-1 cells were suspended at a concentration of 1×10^5 cells/ml in an MEMU medium containing 10% FBS. 0.5 ml of the cell suspension was inoculated to each well of a 24-well cluster dish. […] 24 hours later, the culture solution was collected, and TSLP in the supernatant was quantified by ELISA (FIG. 3).
The KCMH-1 cells were suspended at a concentration of 1×10^5 cells/ml in an MEMU medium containing 10% FBS. […] 24 hours later, the culture solution was collected, and TSLP in the supernatant was quantified by ELISA (FIG. 4).
The KCMH-1 cells were suspended at a concentration of 1×10^5 cells/ml in an MEMU medium containing 10% FBS. […] 24 hours later, the culture solution was collected, and TSLP in the supernatant was quantified by ELISA (FIG. 5).

Row | SMILES | expression of human TSLP mRNA by IL-1β [1] | TSLP production in the KCMH-1 cells [2]
1 | CC1=C(/C=C/C(C)=C\C=C\C(C)=C\C(=O)O)C(C)(C)CCC1 [9-cis-retinoic acid] | inhibits | –
2 | Cc1ccc(S(=O)(=O)/C=C/C#N)cc1 [BAY11-7082] | – | partially inhibited
